Reference: paper PMC4412093, “Identification of a Novel Series of Potent TrkA Receptor Tyrosine Kinase Inhibitors” (International Journal of Medicinal Chemistry, 2012)
One block for each molecule: values may come before it.

How the values were obtained:
TrkA [1] = tested on: TrkA; set-up: method as in PMID 18646745, PMID 19509272; settings: read-out: TrkA EC50 (reported); cited from earlier work
TrkA [2] = settings: read-out: TrkA IC50 (reported); cited from earlier work
TrkA human enzyme = TrkA human enzyme (Homo sapiens, UniProt P04629); assay: TrkA kinase enzyme inhibition; type: biochemical; settings: for inhibition at 0.1 µM / inhibition at 0.03 µM: average of ≥3 experiments; for inhibition at 0.1 µM: read-out: TrkA % inh. at 0.1 μM; for inhibition at 0.03 µM: 30 nM, read-out: TrkA % inh. at 30 nM; for IC50: average of ≥2 experiments
VEGFR2 = VEGFR2 (Homo sapiens, UniProt P35968); assay: VEGFR2 kinase enzyme inhibition; type: biochemical; settings: average of ≥3 experiments
Excerpt: (§1) Table 1 2-Oxo-3-phenylimidazolidine-1-carboxamide kinase inhibitors based on different scaffolds.

c-Met [3] = target: T1, c-Met (Homo sapiens, UniProt P08581); assay: c-Met kinase enzyme inhibition; type: biochemical; settings: average of ≥3 experiments
Excerpt: as §1

GSK3β = target: T2, GSK3β (Homo sapiens, UniProt P49841); assay: Millipore Kinaseprofiler, GSK3β; type: biochemical; settings: tested at 100 nM
T2 construct: purchased Millipore (Kinaseprofiler assay service)
Description: (§2) Compound 5 was profiled and tested at 100 nM against 24 other kinase enzymes using Millipore's Kinaseprofiler assay services.

LIMK1 = target: T3, LIMK1 (Homo sapiens, UniProt P53667); assay: Millipore Kinaseprofiler, LIMK1; type: biochemical; settings: tested at 100 nM
T3 construct: purchased Millipore (Kinaseprofiler assay service)
Description: as §2

Flt3 = target: T4, Flt3 (Homo sapiens, UniProt P36888); assay: Millipore Kinaseprofiler, Flt3; type: biochemical; settings: tested at 100 nM
T4 construct: purchased Millipore (Kinaseprofiler assay service)
Description: as §2

JAK2 = target: T5, JAK2 (Homo sapiens, UniProt O60674); assay: Millipore Kinaseprofiler, JAK2; type: biochemical; settings: tested at 100 nM
T5 construct: purchased Millipore (Kinaseprofiler assay service)
Description: as §2

PKBα = target: T6, PKBα (Homo sapiens, UniProt P31749); assay: Millipore Kinaseprofiler, PKBα; type: biochemical; settings: tested at 100 nM
T6 construct: purchased Millipore (Kinaseprofiler assay service)
Description: as §2

IKKβ = target: T7, IKKβ (Homo sapiens, UniProt O14920); assay: Millipore Kinaseprofiler, IKKβ; type: biochemical; settings: tested at 100 nM
T7 construct: purchased Millipore (Kinaseprofiler assay service)
Description: as §2

PDK1 = target: T8, PDK1 (Homo sapiens, UniProt O15530); assay: Millipore Kinaseprofiler, PDK1; type: biochemical; settings: tested at 100 nM
T8 construct: purchased Millipore (Kinaseprofiler assay service)
Description: as §2

Ret = target: T9, Ret (Homo sapiens, UniProt P07949); assay: Millipore Kinaseprofiler, Ret; type: biochemical; settings: tested at 100 nM
T9 construct: purchased Millipore (Kinaseprofiler assay service)
Description: as §2

CHK1 = target: T10, CHK1 (Homo sapiens, UniProt O14757); assay: Millipore Kinaseprofiler, CHK1; type: biochemical; settings: tested at 100 nM
T10 construct: purchased Millipore (Kinaseprofiler assay service)
Description: as §2

EphB4 = target: T11, EphB4 (Homo sapiens, UniProt P54760); assay: Millipore Kinaseprofiler, EphB4; type: biochemical; settings: tested at 100 nM
T11 construct: purchased Millipore (Kinaseprofiler assay service)
Description: as §2

ALK = target: T12, ALK (Homo sapiens, UniProt Q9UM73); assay: Millipore Kinaseprofiler, ALK; type: biochemical; settings: tested at 100 nM
T12 construct: purchased Millipore (Kinaseprofiler assay service)
Description: as §2

PI3-Kinaseβ = target: T13, PI3-Kinaseβ (Homo sapiens, UniProt P42338); assay: Millipore Kinaseprofiler, PI3-Kinaseβ; type: biochemical; settings: tested at 100 nM
T13 construct: purchased Millipore (Kinaseprofiler assay service)
Description: as §2

Bmx = target: T14, Bmx (Homo sapiens, UniProt P51813); assay: Millipore Kinaseprofiler, Bmx; type: biochemical; settings: tested at 100 nM
T14 construct: purchased Millipore (Kinaseprofiler assay service)
Description: as §2

cKit = target: T15, cKit (Homo sapiens, UniProt P10721); assay: Millipore Kinaseprofiler, cKit; type: biochemical; settings: tested at 100 nM
T15 construct: purchased Millipore (Kinaseprofiler assay service)
Description: as §2

Tie2 = target: T16, Tie2 (Homo sapiens, UniProt Q02763); assay: Millipore Kinaseprofiler, Tie2; type: biochemical; settings: tested at 100 nM
T16 construct: purchased Millipore (Kinaseprofiler assay services)
Description: as §2

TrkB = TrkB (Homo sapiens, UniProt Q16620); assay: TrkB kinase inhibition; type: biochemical; settings: tested at 10 nM
Description: as §2

c-Raf = target: T17, c-Raf (Homo sapiens, UniProt P04049); assay: Millipore Kinaseprofiler, c-Raf; type: biochemical; settings: tested at 100 nM
T17 construct: purchased Millipore (Kinaseprofiler assay service)
Description: as §2

JAK3 = target: T18, JAK3 (Homo sapiens, UniProt P52333); assay: Millipore Kinaseprofiler, JAK3; type: biochemical; settings: tested at 100 nM
T18 construct: purchased Millipore (Kinaseprofiler assay service)
Description: as §2

Haspin = target: T19, Haspin (Homo sapiens, UniProt Q8TF76); assay: Millipore Kinaseprofiler, Haspin; type: biochemical; settings: tested at 100 nM
T19 construct: purchased Millipore (Kinaseprofiler assay service)
Description: as §2

c-Met [4] = target: T1, c-Met; assay: Millipore Kinaseprofiler, c-Met; type: biochemical; set-up: purchased Millipore (Kinaseprofiler assay service); settings: tested at 100 nM
Description: as §2

MEK1 = target: T20, MEK1 (Homo sapiens, UniProt Q02750); assay: Millipore Kinaseprofiler, MEK1; type: biochemical; settings: tested at 100 nM
T20 construct: purchased Millipore (Kinaseprofiler assay service)
Description: as §2

[5] = Rat pharmacokinetic profile; type: in vivo
Excerpt: Compound 5 was further evaluated for its pharmacokinetic properties in the rat (Table 5).

Ron = target: T21, Ron (Homo sapiens, UniProt Q04912); assay: Millipore Kinaseprofiler, Ron; type: biochemical; settings: tested at 100 nM
T21 construct: purchased Millipore (Kinaseprofiler assay service)
Description: as §2

Pim-1 = target: T22, Pim-1 (Homo sapiens, UniProt P11309); assay: Millipore Kinaseprofiler, Pim-1; type: biochemical; settings: tested at 100 nM
T22 construct: purchased Millipore (Kinaseprofiler assay service)
Description: as §2

FAK = target: T23, FAK (Homo sapiens, UniProt Q05397); assay: Millipore Kinaseprofiler, FAK; type: biochemical; settings: tested at 100 nM
T23 construct: purchased Millipore (Kinaseprofiler assay service)
Description: as §2

[6] = p.o. dose 5.25 mg/kg, dose-normalised

TrkA human enzyme, sequence (P04629 33-796): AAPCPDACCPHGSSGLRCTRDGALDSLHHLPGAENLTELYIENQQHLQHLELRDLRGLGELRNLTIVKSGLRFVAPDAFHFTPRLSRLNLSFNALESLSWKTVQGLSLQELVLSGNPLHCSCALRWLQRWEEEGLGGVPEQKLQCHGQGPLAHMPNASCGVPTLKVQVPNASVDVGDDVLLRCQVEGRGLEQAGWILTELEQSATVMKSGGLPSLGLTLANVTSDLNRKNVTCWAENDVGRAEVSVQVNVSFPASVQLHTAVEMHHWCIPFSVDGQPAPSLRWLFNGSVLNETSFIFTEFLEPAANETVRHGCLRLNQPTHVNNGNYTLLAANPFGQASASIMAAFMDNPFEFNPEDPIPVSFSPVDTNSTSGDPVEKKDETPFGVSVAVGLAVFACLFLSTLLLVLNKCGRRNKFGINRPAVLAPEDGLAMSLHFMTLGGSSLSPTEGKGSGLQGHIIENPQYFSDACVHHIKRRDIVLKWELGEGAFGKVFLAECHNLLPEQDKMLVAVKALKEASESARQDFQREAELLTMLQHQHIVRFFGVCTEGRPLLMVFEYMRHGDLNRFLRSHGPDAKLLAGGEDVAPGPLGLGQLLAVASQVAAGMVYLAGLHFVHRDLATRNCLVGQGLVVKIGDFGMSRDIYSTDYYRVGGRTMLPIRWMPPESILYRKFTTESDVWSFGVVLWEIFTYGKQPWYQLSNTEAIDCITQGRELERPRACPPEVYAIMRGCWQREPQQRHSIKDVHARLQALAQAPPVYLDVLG
VEGFR2, sequence (P35968 20-1356, species assumed): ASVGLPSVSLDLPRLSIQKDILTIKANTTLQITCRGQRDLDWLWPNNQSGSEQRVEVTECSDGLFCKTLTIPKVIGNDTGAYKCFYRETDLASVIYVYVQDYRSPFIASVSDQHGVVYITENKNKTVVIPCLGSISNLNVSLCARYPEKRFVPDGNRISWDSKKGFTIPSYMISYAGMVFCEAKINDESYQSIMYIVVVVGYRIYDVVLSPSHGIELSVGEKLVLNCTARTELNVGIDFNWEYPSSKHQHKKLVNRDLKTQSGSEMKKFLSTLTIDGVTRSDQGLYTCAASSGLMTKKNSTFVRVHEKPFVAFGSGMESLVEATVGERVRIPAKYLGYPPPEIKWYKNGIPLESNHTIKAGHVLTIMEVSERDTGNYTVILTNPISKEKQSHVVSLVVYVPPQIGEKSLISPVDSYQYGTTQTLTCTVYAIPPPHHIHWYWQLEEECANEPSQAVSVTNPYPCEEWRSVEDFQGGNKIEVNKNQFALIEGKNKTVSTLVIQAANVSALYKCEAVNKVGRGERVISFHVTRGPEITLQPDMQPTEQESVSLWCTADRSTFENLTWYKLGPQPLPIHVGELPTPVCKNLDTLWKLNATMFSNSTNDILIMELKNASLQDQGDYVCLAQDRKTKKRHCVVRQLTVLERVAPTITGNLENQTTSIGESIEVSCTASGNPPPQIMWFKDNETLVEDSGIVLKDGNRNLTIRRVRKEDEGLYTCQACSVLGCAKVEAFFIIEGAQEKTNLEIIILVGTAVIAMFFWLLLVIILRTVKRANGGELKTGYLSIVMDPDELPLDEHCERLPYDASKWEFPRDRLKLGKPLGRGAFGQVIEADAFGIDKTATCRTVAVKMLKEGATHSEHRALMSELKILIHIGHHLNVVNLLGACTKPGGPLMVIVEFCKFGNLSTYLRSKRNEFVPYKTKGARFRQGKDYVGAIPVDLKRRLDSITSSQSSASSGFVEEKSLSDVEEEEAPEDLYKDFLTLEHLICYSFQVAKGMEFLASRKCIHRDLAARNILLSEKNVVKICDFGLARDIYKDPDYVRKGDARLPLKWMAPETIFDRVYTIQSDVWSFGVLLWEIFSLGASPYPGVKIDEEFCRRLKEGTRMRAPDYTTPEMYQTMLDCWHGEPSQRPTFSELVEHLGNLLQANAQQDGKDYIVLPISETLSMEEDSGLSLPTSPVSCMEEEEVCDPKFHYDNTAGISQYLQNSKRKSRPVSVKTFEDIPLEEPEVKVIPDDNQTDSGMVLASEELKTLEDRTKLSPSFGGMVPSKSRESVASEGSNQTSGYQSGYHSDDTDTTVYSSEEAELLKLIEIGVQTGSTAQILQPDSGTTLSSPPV
T1 sequence (P08581 25-1390): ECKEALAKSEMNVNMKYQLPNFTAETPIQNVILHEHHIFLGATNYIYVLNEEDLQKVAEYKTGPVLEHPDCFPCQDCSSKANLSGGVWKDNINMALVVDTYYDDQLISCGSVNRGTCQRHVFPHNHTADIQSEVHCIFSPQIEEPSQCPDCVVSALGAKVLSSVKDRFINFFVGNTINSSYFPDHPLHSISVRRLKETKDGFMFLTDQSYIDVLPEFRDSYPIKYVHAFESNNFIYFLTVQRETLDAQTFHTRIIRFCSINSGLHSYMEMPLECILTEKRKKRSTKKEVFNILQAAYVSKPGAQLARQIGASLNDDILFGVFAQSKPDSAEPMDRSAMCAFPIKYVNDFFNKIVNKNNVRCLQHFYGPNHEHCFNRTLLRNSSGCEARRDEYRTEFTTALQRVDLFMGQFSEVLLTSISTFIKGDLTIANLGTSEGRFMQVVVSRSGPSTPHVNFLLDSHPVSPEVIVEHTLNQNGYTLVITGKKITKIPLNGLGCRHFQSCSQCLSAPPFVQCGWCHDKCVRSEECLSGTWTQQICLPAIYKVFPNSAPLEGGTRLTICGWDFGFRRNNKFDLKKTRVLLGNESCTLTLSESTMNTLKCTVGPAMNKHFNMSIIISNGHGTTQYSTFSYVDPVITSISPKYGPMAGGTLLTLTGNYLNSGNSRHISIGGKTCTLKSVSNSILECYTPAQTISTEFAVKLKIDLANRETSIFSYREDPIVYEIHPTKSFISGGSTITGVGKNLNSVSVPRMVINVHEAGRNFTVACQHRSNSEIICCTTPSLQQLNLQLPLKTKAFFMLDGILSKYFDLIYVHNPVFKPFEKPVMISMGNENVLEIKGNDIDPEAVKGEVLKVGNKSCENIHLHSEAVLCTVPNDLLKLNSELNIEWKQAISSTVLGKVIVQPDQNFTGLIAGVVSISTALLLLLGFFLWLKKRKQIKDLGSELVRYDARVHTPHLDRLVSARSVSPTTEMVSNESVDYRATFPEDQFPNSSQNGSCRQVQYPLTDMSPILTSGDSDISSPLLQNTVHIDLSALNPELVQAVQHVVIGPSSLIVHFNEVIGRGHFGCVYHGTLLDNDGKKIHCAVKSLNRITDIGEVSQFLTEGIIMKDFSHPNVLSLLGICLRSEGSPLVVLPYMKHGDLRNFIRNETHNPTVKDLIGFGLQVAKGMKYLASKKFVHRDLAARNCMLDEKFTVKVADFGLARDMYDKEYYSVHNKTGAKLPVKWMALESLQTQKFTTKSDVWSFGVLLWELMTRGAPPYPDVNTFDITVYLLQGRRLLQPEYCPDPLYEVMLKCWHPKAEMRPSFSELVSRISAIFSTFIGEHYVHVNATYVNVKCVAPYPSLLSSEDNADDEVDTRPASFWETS
T16 sequence (Q02763 23-1124): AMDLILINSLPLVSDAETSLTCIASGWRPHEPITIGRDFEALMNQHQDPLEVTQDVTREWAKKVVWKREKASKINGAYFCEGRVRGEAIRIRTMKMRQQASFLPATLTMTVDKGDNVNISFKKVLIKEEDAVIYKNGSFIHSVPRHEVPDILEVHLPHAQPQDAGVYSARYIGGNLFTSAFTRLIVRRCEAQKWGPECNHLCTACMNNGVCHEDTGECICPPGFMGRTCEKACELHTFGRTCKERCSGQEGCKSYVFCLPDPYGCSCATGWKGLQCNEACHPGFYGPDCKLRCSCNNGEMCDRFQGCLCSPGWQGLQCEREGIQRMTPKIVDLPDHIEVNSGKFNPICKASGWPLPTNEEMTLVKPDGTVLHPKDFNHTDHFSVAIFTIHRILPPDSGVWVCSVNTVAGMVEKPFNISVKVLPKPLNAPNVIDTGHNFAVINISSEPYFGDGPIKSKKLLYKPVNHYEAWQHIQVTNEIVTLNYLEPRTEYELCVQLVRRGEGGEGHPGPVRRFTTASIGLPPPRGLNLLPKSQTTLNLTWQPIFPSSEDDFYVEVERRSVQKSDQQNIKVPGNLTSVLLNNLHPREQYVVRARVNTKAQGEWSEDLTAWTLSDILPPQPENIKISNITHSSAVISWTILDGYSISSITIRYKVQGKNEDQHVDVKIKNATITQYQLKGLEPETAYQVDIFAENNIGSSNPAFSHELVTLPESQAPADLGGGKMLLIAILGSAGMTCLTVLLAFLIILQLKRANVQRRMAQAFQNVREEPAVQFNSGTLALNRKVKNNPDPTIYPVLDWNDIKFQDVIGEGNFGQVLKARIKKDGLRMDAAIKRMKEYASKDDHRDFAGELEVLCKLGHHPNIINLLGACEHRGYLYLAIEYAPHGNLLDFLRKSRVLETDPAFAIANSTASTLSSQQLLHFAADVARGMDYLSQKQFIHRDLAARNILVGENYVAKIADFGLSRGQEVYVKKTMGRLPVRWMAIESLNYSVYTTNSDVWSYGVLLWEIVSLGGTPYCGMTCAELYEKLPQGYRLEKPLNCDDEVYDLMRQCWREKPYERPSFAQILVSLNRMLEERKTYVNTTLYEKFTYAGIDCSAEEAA
T2 sequence (P49841 whole entry): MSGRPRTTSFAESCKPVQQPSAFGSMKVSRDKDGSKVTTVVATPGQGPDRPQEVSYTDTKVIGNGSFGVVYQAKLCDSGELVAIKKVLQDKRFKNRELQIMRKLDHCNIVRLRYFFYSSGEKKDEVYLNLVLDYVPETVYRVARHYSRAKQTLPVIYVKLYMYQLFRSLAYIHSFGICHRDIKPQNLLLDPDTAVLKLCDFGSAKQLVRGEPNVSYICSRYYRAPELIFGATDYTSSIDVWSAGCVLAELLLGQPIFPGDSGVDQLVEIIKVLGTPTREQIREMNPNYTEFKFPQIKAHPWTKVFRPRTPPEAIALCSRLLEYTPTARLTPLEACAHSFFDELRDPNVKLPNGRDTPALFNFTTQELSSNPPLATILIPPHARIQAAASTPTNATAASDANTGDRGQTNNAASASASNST

SMILES: CC(C)Oc1cc(Nc2nc(N[C@@H](C)c3ccc(F)cc3)ncc2Cl)n[nH]1 [AZ-23]
EC50 (TrkA [1]): 1 nM | IC50 (TrkA [2]): < 3 nM

SMILES: NC(=O)Nc1snc(S[C@@H]2CCCCc3ccccc32)c1C(N)=O [Compound 5n]
IC50 (TrkA [2]): < 1 nM

SMILES: CCNC(=O)OC(C)C1c2ccccc2-c2c3c(c4c([nH]c5ccccc54)c21)CNC3=O (stereo not shown) [Compound 12a]
IC50 (TrkA [2]): 8 nM

SMILES: Cc1ccc(Sc2cnc(Nc3cccc(Br)n3)s2)cc1C(=O)N1CCN(C(=O)CN)CC1 [Compound 20h]
IC50 (TrkA [2]): 0.6 nM

inhibition at 0.1 µM (TrkA human enzyme): 82% | IC50 (VEGFR2): 10 nM | IC50 (c-Met [3]): 20 nM
SMILES: CCn1cnc(-c2cc3nccc(Oc4ccc(NC(=O)N5CCN(c6ccccc6)C5=O)cc4F)c3s2)c1 [Cpd 1]

inhibition at 0.1 µM (TrkA human enzyme): 94% | IC50 (VEGFR2): 10 nM | IC50 (c-Met [3]): 30 nM
SMILES: COc1cc2nccc(Oc3ccc(NC(=O)N4CCN(c5ccccc5)C4=O)cc3F)c2cc1OC [Cpd 2]

SMILES: O=C(Nc1cc(Oc2ccc(NC(=O)N3CCN(c4ccccc4)C3=O)cc2F)ncn1)N1CCCC1 [Cpd 3]
inhibition at 0.1 µM (TrkA human enzyme): 16% | IC50 (VEGFR2): 150 nM | IC50 (c-Met [3]): 50 nM

inhibition at 0.1 µM (TrkA human enzyme): 49% | IC50 (VEGFR2): 230 nM | IC50 (c-Met [3]): 30 nM
SMILES: O=C(Nc1cc(Oc2ccc(NC(=O)N3CCN(c4ccccc4)C3=O)cc2F)ccn1)N1CCCC1 [Cpd 4]

inhibition at 0.1 µM (GSK3β): < 40% | inhibition at 0.1 µM (LIMK1): < 40% | inhibition at 0.1 µM (Flt3): 83% | inhibition at 0.1 µM (JAK2): < 40% | inhibition at 0.1 µM (PKBα): < 40% | inhibition at 0.1 µM (IKKβ): < 40% | inhibition at 0.1 µM (PDK1): < 40% | inhibition at 0.1 µM (Ret): < 40% | inhibition at 0.1 µM (CHK1): < 40% | inhibition at 0.1 µM (EphB4): < 40% | inhibition at 0.1 µM (ALK): < 40% | inhibition at 0.1 µM (PI3-Kinaseβ): < 40% | inhibition at 0.1 µM (Bmx): < 40% | inhibition at 0.1 µM (cKit): < 40% | inhibition at 0.03 µM (TrkA human enzyme): 96% | inhibition at 0.1 µM (TrkA human enzyme): 98% | IC50 (TrkA human enzyme): 4 nM | inhibition at 0.1 µM (Tie2): < 40% | IC50 (VEGFR2): 2500 nM | inhibition at 0.01 µM (TrkB): 40% | inhibition at 0.1 µM (c-Raf): < 40% | inhibition at 0.1 µM (JAK3): < 40% | inhibition at 0.1 µM (Haspin): < 40% | inhibition at 0.1 µM (c-Met [4]): < 40% | inhibition at 0.1 µM (MEK1): < 40% | clearance ([5]; in vivo, iv, i.v. dose 2.58 mg/kg, read-out: Cl i.v. (converted)): 55 mL/min/kg | half-life ([5]; in vivo, iv, i.v. dose 2.58 mg/kg, read-out: T1/2, i.v. (converted)): 1.5 h | Vd ([5]; in vivo, iv, i.v. dose 2.58 mg/kg, read-out: Vss i.v.): 3.7 L/kg | bioavailability ([5]; in vivo, oral, i.v. 2.58 mg/kg, p.o. 5.25 mg/kg): 99% | Tmax ([5]; in vivo, po, p.o. dose 5.25 mg/kg): 4 h | N. AUC, p.o. [5, 6]: 0.83 μM.h/(mg/kg) | N. C max, p.o. [5, 6]: 0.08 μM/(mg/kg) | inhibition at 0.1 µM (Ron): < 40% | inhibition at 0.1 µM (Pim-1): < 40% | IC50 (c-Met [3]): 310 nM | inhibition at 0.1 µM (FAK): < 40%
SMILES: CC(=O)Nc1ccc(Oc2cccc(NC(=O)N3CCN(c4ccccc4)C3=O)c2)cn1 [Cpd 5]

inhibition at 0.03 µM (TrkA human enzyme): 5%
SMILES: CC(=O)Nc1ccc(NC(=O)Nc2cccc(NC(=O)N3CCN(c4ccccc4)C3=O)c2)cn1 [Cpd 6]

inhibition at 0.03 µM (TrkA human enzyme): 16%
SMILES: CC(=O)Nc1ccc(C#Cc2cccc(NC(=O)N3CCN(c4ccccc4)C3=O)c2)cn1 [Cpd 7]

inhibition at 0.03 µM (TrkA human enzyme): 6%
SMILES: CC(=O)Nc1ccc(Oc2cc(NC(=O)N3CCN(c4ccccc4)C3=O)ccc2C)cn1 [Cpd 10]

inhibition at 0.03 µM (TrkA human enzyme): 15%
SMILES: COc1ccc(NC(=O)N2CCN(c3ccccc3)C2=O)cc1Oc1ccc(NC(C)=O)nc1 [Cpd 11]

inhibition at 0.03 µM (TrkA human enzyme): 0%
SMILES: CC(=O)Nc1ccc(Oc2ccc(Cl)c(NC(=O)N3CCN(c4ccccc4)C3=O)c2)cn1 [Cpd 12]

IC50 (TrkA human enzyme): 20 nM
SMILES: Nc1ccc(Oc2cccc(NC(=O)N3CCN(c4ccccc4)C3=O)c2)cn1 [Cpd 13]

IC50 (TrkA human enzyme): 3 nM
SMILES: CC(=O)Nc1ccc(Oc2cccc(NC(=O)N3CCN(c4ccc(F)cc4)C3=O)c2)cn1 [Cpd 14]

IC50 (TrkA human enzyme): 5 nM
SMILES: CNC(=O)Nc1ccc(Oc2cccc(NC(=O)N3CCN(c4ccccc4)C3=O)c2)cn1 [Cpd 15]

IC50 (TrkA human enzyme): 2 nM
SMILES: CNC(=O)Nc1ccc(Oc2cccc(NC(=O)N3CCN(c4ccc(F)cc4)C3=O)c2)cn1 [Cpd 16]

IC50 (TrkA human enzyme): 4 nM
SMILES: O=C(NCCN1CCCC1)Nc1ccc(Oc2cccc(NC(=O)N3CCN(c4ccc(F)cc4)C3=O)c2)cn1 [Cpd 17]
